In patent US7807381B2, “Methods for assessing CDK5 activation and function” (The Board of Regents of the University of Texas System, priority 2007, dated 2010):

How the values were obtained:
Cdk5 sites = assay: Quantitative immunoblot of Cdk5-site phosphorylation in acute striatal slices incubated with NMDA; type: cell-based; settings: NMDA at doses and times indicated, n=3-12
Protocol: (§1) FIGS. 5A-B—NMDA receptor activation inhibits Cdk5 and the cytoplasmic domain is a Cdk5 inhibitor. (FIG. 5A) Reduction in phosphorylation of three Cdk5 sites by NMDA. Quantitative immunoblot analyses is shown of acute striatal slices incubated with NMDA for the doses and times indicated, n=3-12. *p<0.05; **p<0.01 vs. control, one-way ANOVA with Dunnett's multiple comparison test. (FIG. 5B) Inhibition of Cdk5-dependent phosphorylation of inhibitor-1 by NR2B as assessed by time-course (top), dose-response (middle), and Line-Weaver Burke (bottom) analyses of in vitro phosphorylation reactions conducted in the presence of the indicated inhibitors or control proteins.
To determine if these observations were related, the inventors conducted in vitro phosphorylation reactions with Cdk5 and a test substrate, protein phosphatase inhibitor-1. […] Kinetic analysis confirmed that the NR2B receptor cytoplasmic domain functions as a potent and selective inhibitor of Cdk5 (IC50˜4 μM) and indicated a noncompetitive inhibition mechanism. […] These new data further confirm that NR2B can block Cdk5 activity, and further, that these interactions may be targeted for disruption so that Cdk5 may be uncoupled from NMDA receptors.

Cdk5 = Cdk5 (Homo sapiens, UniProt Q00535); assay: in vitro phosphorylation reactions with Cdk5 and test substrate protein phosphatase inhibitor-1; type: biochemical; settings: preliminary data
Protocol: as §1
To determine if these observations were related, the inventors conducted in vitro phosphorylation reactions with Cdk5 and a test substrate, protein phosphatase inhibitor-1. […] Kinetic analysis confirmed that the NR2B receptor cytoplasmic domain functions as a potent and selective inhibitor of Cdk5 (IC50˜4 μM) and indicated a noncompetitive inhibition mechanism. […]
Cdk5 phosphorylation activity assays may generally comprise ^32P-incoporation into substrates as determined by phosphorimager analysis. Alternatively, phosphorylation may be detected by either Western blot or ELISA using a control Cdk5 substrate and a phosphorylation state-specific antibody to a Cdk5 phosphorylation site on the substrate. […]

Sequence of Cdk5 (Q00535 whole entry, species assumed): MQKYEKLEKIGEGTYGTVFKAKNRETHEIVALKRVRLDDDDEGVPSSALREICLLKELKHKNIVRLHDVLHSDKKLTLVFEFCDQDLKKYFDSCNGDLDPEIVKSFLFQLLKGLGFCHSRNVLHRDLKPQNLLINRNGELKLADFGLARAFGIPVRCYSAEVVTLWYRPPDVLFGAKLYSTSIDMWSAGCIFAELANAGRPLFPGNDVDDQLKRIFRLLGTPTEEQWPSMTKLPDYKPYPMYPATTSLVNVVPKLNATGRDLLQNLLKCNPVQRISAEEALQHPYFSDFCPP

Molecule | phosphorylation of three Cdk5 sites (Cdk5 sites) | inhibition of Cdk5 (qualitative) (Cdk5)
CN[C@H](CC(=O)O)C(=O)O [NMDA] | Reduction | 
peptide encompassing amino acid residues 1101-1130 of NR2B: a peptide encompassing amino acid residues 1101-1130 of NR2B (EFDEIELAYRRRPPRSPDHKRYFRDKEGLR; UniProt Q13224 1101-1130, looked up, fragment) |  | effective inhibitor
